These results are taken from article PMC6891447, “Andean Prumnopitys Andina (Podocarpacae) Fruit Extracts: Characterization of Secondary Metabolites and Potential Cytoprotective Effect” (Molecules, 2019).

Where two headings read alike, the source gives them in different places.

The target in one experiment is α-glucosidase (Saccharomyces cerevisiae, UniProt P53341). The experiment can be described thus: α-Glucosidase inhibition assay. In kind it is biochemical. As to conditions: read-out: α-Glucosidase Inhibition (percentage of inhibition). The text has this:
The chemicals, enzymes and reagents acquired from Sigma-Aldrich (St. Louis, MO, USA) were the following: α-amylase from porcine pancreas (A3176; EC 3.2.1.1), α-glucosidase from Saccharomyces cerevisiae (G5003; EC 3.2.1.20), acetic acid, AlCl3, Amberlite XAD7 HP, catechin, DPPH (2,2-diphenyl-1-picrylhydrazyl radical), 3,5-dinitrosalicylic acid, porcine pancreas lipase type II (L-3126; EC 3.1.1.3), Na2CO3, 4-nitrophenyl-α-D-glucopyranoside, p-nitrophenyl palmitate, p-anisaldehyde, quercetin, sodium acetate, starch, 2,4,6-tri(2-pyridyl)1,3,5-triazine (TPTZ), trichloracetic acid, thiobarbituric acid, and triton X-100. The following materials were purchased from Merck (Darmstadt, Germany): 6-hydroxy-2,5,7,8-tetramethylchroman-2-carboxylic acid (Trolox), ethyl acetate, FeCl3 × 6H2O, potassium sodium tartrate and HPLC-grade methanol. Pepsin A (P3271) was from US Biological (Salem, MA, USA). […]
Potential inhibition of α-glucosidase by XAD7 extracts and fractions from the LH-20 column was tested under conditions that simulate, at least in part, those of the small intestine. […] Resulting enzyme activity was then measured by adding 20 µL of 5 mM p-nitrophenyl-α-D-glucopyranoside into the wells and incubating for additional 15 min at 37 °C. […] Final absorbance was measured at 415 nm in a Biotek ELx801 (Winooski, VT, USA) microplate reader. […]

The next experiment has as its target T1, α-amylase (Sus scrofa, UniProt P00690).
T1 construct: purchased Sigma-Aldrich A3176; host or cells: porcine pancreas
T1 sequence (P00690 16-511): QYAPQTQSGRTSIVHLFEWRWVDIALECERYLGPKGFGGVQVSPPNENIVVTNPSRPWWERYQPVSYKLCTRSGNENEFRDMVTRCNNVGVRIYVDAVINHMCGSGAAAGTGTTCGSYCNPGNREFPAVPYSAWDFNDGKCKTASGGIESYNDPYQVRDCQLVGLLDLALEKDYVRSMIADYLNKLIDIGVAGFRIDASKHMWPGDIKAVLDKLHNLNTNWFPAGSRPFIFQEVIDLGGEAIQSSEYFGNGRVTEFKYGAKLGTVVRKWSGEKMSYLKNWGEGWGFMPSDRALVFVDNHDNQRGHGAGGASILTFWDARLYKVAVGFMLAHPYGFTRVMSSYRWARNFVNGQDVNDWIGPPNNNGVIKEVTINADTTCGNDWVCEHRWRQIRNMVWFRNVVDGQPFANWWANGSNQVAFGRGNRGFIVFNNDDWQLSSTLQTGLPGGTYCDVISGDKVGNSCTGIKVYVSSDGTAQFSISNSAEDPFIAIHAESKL
The experiment can be described thus: α-Amylase inhibition assay. In kind it is biochemical, porcine. As to conditions: Sephadex fractions.

The next experiment concerns the target T2, pancreatic lipase (Sus scrofa, UniProt P00591).
T2 construct: purchased Sigma-Aldrich L-3126; host or cells: porcine pancreas
T2 sequence (P00591 1-450): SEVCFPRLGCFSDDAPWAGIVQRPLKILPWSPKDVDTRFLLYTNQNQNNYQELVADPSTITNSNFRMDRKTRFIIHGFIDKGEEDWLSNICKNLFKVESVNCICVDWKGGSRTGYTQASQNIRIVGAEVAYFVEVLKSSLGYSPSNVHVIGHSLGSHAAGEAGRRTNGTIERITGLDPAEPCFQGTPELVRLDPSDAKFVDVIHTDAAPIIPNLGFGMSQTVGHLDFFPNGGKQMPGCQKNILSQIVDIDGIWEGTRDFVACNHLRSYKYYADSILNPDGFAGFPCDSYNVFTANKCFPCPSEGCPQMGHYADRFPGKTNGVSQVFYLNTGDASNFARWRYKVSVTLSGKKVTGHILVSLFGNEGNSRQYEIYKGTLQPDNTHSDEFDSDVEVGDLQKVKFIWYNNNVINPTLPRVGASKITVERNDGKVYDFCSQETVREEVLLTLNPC
The experiment in a line: Pancreatic lipase inhibition assay. The format is biochemical, porcine. Particulars: Sephadex fractions.

For experiment [1], the system named is AGS cells. The experiment can be described thus: Cytoprotection against H2O2-induced stress in AGS cells. The format is cell-based. As to conditions: Homo sapiens, rutin 100 µg/mL, non-significant, H2O2 control 47.4%, read-out: Cell viability after H2O2 challenge. The protocol:
Human AGS gastric adenocarcinoma cells (ATCC CRL-1739, American Type Culture Collection, Manassas, VA, USA) were grown as monolayers in a humidified incubator with 5% CO2 in air at 37 °C in HamF-12 medium supplemented with 2 mM L-glutamine and 1.5 g/L sodium bicarbonate. The medium contained 10% heat inactivated fetal bovine serum (FBS), 100 IU/mL penicillin and 100 µg/mL streptomycin. Cells were plated at 25,000 cells/mL in 96-well plates, with 100 µL per well. Cells were counted by means of the trypan blue exclusion assay in a Neubauer chamber. All the cell-based experiments were carried out using a pool of the extracts from different collection years.
Confluent cultures of AGS cells were incubated for 16 h with 100 µL of the different samples at concentrations ranging from 0 to 400 µg extract/mL). The flavonol rutin (100 µg/mL) was included in this assay for comparison purposes. The sample was dissolved in medium supplemented with 2% FBS and antibiotics. Culture medium was completely removed by vacuum aspiration at the end of the incubation, and cells were washed with 100 µL of PBS. […] Cell viability was determined by means of the MTT reduction assay, as described above. […] Each concentration of the assayed samples was evaluated in quintuplicate. Results are expressed as percentage of the 100% viability control.

The subject of experiment [2] is AGS cells. The experiment can be described thus: Intracellular total antioxidant activity (TAA) in AGS cells. Particulars: rutin 100 µg/mL; non-significant. In kind it is cell-based, human. The procedure: The TAA was carried out according to Ferrari et al.. AGS cells were plated at 25,000 cells/mL in 3 cm diameter Petri dishes. One day after confluence, AGS cells were pre-incubated overnight (16 h) with 3 mL of the pool of P. andina XAD7 extracts, in different concentrations (0–400 µg extract/mL). For comparison purposes, rutin (100 µg/mL) was also included in this experiment. All samples were prepared in medium supplemented with 2% FBS. Cells treated only with culture medium were used as the control of the basal antioxidant level. The next morning, cells were collected with a cell scraper and centrifuged at 900× g during 5 min. […]
The ABTS radical was prepared by mixing 5 mL of a 7.46 mM ABTS solution with 88 μL of a 140 mM potassium persulfate solution. […] At the end of the incubation, the solution was diluted with MeOH until an absorbance value of 0.700 ± 0.050 at 734 nm was reached. […] After 6 min, absorbance was measured at 734 nm in a UV–Vis spectrophotometer. The absorbance was interpolated and converted to Trolox equivalents using a Trolox calibration curve. […] All the determinations were carried out in triplicate and results were expressed as µmol Trolox equivalents/mg protein ±SD.

A short description of experiment [3]: DPPH radical discoloration (scavenging) assay. In kind it is physicochemical. The procedure:
(§1) The antioxidant capacity of the extracts was evaluated by the discoloration of the DPPH radical, the ferric reducing power (FRAP), the scavenging of the ABTS radical (TEAC) and the oxygen radical absorbance capacity (ORAC). […] Trolox and quercetin were used as reference compounds. The DPPH, FRAP and TEAC assays were performed according to Jiménez-Aspee et al.. The ORAC assay was carried out following the methodology of Ou et al. with slight modifications. All determinations were carried out in triplicate and results are presented as mean values ± standard deviation (SD).

Experiment [4] can be described thus: Ferric reducing power (FRAP) assay. The format is physicochemical. The protocol:
as §1

The nature of experiment [5]: Scavenging of the ABTS radical (TEAC) assay. The format is physicochemical. The procedure:
as §1

Experiment [6] can be described thus: Oxygen radical absorbance capacity (ORAC) assay. The format is physicochemical. The protocol:
as §1

The nature of experiment [7]: TBARS generation in turkey meat under simulated gastric digestion. As to conditions: pH 3.0, 37 °C, 1 h. The procedure:
This assay was carried out according to Kanner et al., with slight modifications. Briefly, the simulated gastric fluid (SGF) contained final concentration of NaCl (0.2% w/v), pepsin (0.32% w/v) and 700 µL of HCl (37%), adjusted to a final volume of 100 mL with ultrapure water. Thirty grams of turkey meat were ground with 90 mL of the SGF solution for 1 min in a blender and adjusted to pH 3.0 with 100 µL of 7N HCl. Fifteen mL of the SGF-meat mixture was aliquoted in 100 mL Erlenmeyer flasks. The powdered extract was weighed and added to the homogenate (meat–liquid mixture) to achieve final concentrations ranging from 0–500 µg/mL in the 15 mL SGF-meat mixture. The P. andina sample consisted in a pool of the extracts from different collection years. The flasks were placed in a shaking water bath at 37 °C during 1 h. At the end of the incubation, 800 µL of the samples, controls (without extracts) and blanks (without meat) were centrifuged at 20,000× g for 15 min at 4 °C. Lipid peroxidation was determined quantifying TBARS. For this purpose, the supernatant resulting from the centrifugation (750 µL) was mixed with 750 µL of TBA solution (0.37% TBA, 15% trichloroacetic acid in 0.25 N HCl), and boiled during 20 min. The absorbance was determined at 532 nm. All determinations were carried out in triplicate and results are presented as IC50 values (μg extracts/mL) ±SD. […]

Sequence of α-glucosidase (P53341 whole entry): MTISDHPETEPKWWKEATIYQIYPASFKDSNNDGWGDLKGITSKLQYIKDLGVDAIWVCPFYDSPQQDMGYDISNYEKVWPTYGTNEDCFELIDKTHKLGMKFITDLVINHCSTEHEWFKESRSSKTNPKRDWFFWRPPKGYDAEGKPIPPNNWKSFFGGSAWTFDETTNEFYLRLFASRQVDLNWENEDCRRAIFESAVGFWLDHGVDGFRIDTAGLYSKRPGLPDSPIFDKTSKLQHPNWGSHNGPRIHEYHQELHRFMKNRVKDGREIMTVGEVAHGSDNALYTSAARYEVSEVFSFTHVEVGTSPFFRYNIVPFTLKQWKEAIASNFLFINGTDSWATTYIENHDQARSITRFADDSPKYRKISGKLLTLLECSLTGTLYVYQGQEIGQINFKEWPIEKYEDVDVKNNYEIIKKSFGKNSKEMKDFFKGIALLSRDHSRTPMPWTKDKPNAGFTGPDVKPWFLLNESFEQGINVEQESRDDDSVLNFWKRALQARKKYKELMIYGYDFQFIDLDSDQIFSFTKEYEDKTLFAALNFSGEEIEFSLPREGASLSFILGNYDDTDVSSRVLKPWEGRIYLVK

As for `C[C@@H]1O[C@@H](OC[C@H]2O[C@@H](Oc3c(-c4ccc(O)c(O)c4)oc4cc(O)cc(O)c4c3=O)[C@H](O)[C@@H](O)[C@@H]2O)[C@H](O)[C@H](O)[C@H]1O` [rutin, quercetin 3-O-rutinoside], the inhibition (in general, the drop in the measured response relative to a control, in per cent) at 50 µg/mL at α-glucosidase came out at 44.8 ± 1.6%. The “α-Amylase Inhibiton” value on α-amylase was “inactive”. Further, the “Pancreatic Lipase Inhibition” value on pancreatic lipase was “inactive”. Also, the viability (in general, a read-out of living cells in per cent, often relative to untreated cells) at 100 µg/mL in the experiment on AGS cells [1] is 46.4%. The “Increase of total intracellular antioxidant activity (TAA) vs untreated controls” value with AGS cells [2] came out at 48.6%.

Turning to `O=c1c(O)c(-c2ccc(O)c(O)c2)oc2cc(O)cc(O)c12` [Quercetin, quercetin, reference compound], the “DPPH (SC50)” value in experiment [3] (n = 3, mean ± SD) is recorded as 7.8 ± 0.3 µg XAD7 Extract/mL. In addition, the FRAP in [4] (n = 3, mean ± SD) amounted to 1077.2 ± 16.4 µmol TE/g XAD7 Extract. Moreover, the TEAC in experiment [5] (n = 3, mean ± SD) turned out to be 8157.9 ± 22.1 µM TE/g XAD7 Extract. Further, the ORAC in experiment [6] (n = 3, mean ± SD) was found to be 22561.6 ± 808.8 µmol TE/g XAD7 Extract.

Regarding `N=C(N)NN` [aminoguanidine, Aminoguanidine], the “IC50 of TBARS generation in turkey meat” value in experiment [7] is given as 317.8 ± 20.4 µg/mL.

With `CC(C)(O)CC[C@@H](O)[C@](C)(O)[C@H]1CC[C@@]2(O)C3=CC(=O)[C@@H]4C[C@@H](O)[C@@H](O)C[C@]4(C)[C@H]3CC[C@]12C` [20-hydroxyecdysone], in [3] (isolated compound), the DPPH assay activity entry was “inactive”. Also, the FRAP value in experiment [4] (isolated compound) is on record as 72.4 ± 7.9 µmol Trolox equivalents/g sample. Besides, in experiment [5] (isolated compound), the TEAC assay activity entry is “inactive”. Moreover, the ORAC value in [6] (isolated compound) is 827.3 ± 30.9 µmol TE/g of sample. Also, the inhibition at 50 µg/mL at α-glucosidase (at a concentration of 50 µg/mL, Sephadex fractions / isolated compounds) came out at 40.1 ± 1.3%. Further, at α-amylase, the “α-Amylase Inhibiton” value is “inactive”. Besides, the “Pancreatic Lipase Inhibition” value at pancreatic lipase is “inactive”.
